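Dose response: 5 concentrations. Exposure: 48 h. Format: 96-well plates. Endpoint: linear interpolation; highest concentration if not reached. TGI: total growth inhibition.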
How the values were obtained:
Experiment in all cases: NCI anticancer screen, dose series, 48 h
786-0 renal = tested on: 786-0 renal
A498 renal = tested on: A498 renal
A549 NSCLC = tested on: A549 NSCLC
ACHN renal = tested on: ACHN renal
BT-549 breast = tested on: BT-549 breast
CAKI-1 renal = tested on: CAKI-1 renal
CCRF-CEM leukemia = tested on: CCRF-CEM leukemia
COLO 205 colon = tested on: COLO 205 colon
DU-145 prostate = tested on: DU-145 prostate
EKVX NSCLC = tested on: EKVX NSCLC
HCC-2998 colon = tested on: HCC-2998 colon
HCT-116 colon = tested on: HCT-116 colon
HCT-15 colon = tested on: HCT-15 colon
HL-60(TB) leukemia = tested on: HL-60(TB) leukemia
HOP-62 NSCLC = tested on: HOP-62 NSCLC
HOP-92 NSCLC = tested on: HOP-92 NSCLC
HS 578T breast = tested on: HS 578T breast
HT29 colon = tested on: HT29 colon
IGROV1 ovarian = tested on: IGROV1 ovarian
K-562 leukemia = tested on: K-562 leukemia
KM12 colon = tested on: KM12 colon
LOX IMVI melanoma = tested on: LOX IMVI melanoma
M14 melanoma = tested on: M14 melanoma
MALME-3M melanoma = tested on: MALME-3M melanoma
MCF7 breast = tested on: MCF7 breast
MDA-MB-435 = tested on: MDA-MB-435
MDA-N = tested on: MDA-N
MOLT-4 leukemia = tested on: MOLT-4 leukemia
NCI-H226 lung = tested on: NCI-H226 lung
NCI-H23 lung = tested on: NCI-H23 lung
NCI-H460 lung = tested on: NCI-H460 lung
NCI-H522 lung = tested on: NCI-H522 lung
NCI/ADR-RES ovarian = tested on: NCI/ADR-RES ovarian
OVCAR-3 ovarian = tested on: OVCAR-3 ovarian
OVCAR-4 ovarian = tested on: OVCAR-4 ovarian
OVCAR-5 ovarian = tested on: OVCAR-5 ovarian
OVCAR-8 ovarian = tested on: OVCAR-8 ovarian
PC-3 prostate = tested on: PC-3 prostate
RPMI-8226 leukemia = tested on: RPMI-8226 leukemia
RXF 393 renal = tested on: RXF 393 renal
SF-268 CNS = tested on: SF-268 CNS
SF-295 CNS = tested on: SF-295 CNS
SF-539 CNS = tested on: SF-539 CNS
SK-MEL-2 melanoma = tested on: SK-MEL-2 melanoma
SK-MEL-28 melanoma = tested on: SK-MEL-28 melanoma
SK-MEL-5 melanoma = tested on: SK-MEL-5 melanoma
SK-OV-3 ovarian = tested on: SK-OV-3 ovarian
SN12C renal = tested on: SN12C renal
SNB-19 CNS = tested on: SNB-19 CNS
SNB-75 CNS = tested on: SNB-75 CNS
SR leukemia = tested on: SR leukemia
SW-620 colon = tested on: SW-620 colon
T-47D breast = tested on: T-47D breast
TK-10 renal = tested on: TK-10 renal
U251 CNS = tested on: U251 CNS
UACC-257 melanoma = tested on: UACC-257 melanoma
UACC-62 melanoma = tested on: UACC-62 melanoma
UO-31 renal = tested on: UO-31 renal
MDA-MB-231 breast = tested on: MDA-MB-231 breast

`COc1ccc(C2=NN(C(N)=S)C(c3ccccc3)C2)cc1` (centres undefined) showed a TGI (786-0 renal) greater than 100 µM, a TGI (A498 renal) of 70.8 µM and a TGI (A549 NSCLC) greater than 100 µM. It also gave a TGI (ACHN renal) greater than 100 µM, a TGI (BT-549 breast) greater than 100 µM and a TGI (CAKI-1 renal) greater than 100 µM. For the same compound, the TGI (CCRF-CEM leukemia) was greater than 100 µM, the TGI (COLO 205 colon) was 58.7 µM and the TGI (DU-145 prostate) was greater than 100 µM. For the same compound, the TGI (EKVX NSCLC) was greater than 100 µM, the TGI (HCC-2998 colon) was greater than 100 µM and the TGI (HCT-116 colon) was greater than 100 µM. It also gave a TGI (HCT-15 colon) greater than 100 µM, a TGI (HL-60(TB) leukemia) of 52.9 µM and a TGI (HOP-62 NSCLC) greater than 100 µM. The TGI (HOP-92 NSCLC) was greater than 100 µM, the TGI (HS 578T breast) was greater than 100 µM and the TGI (HT29 colon) was greater than 100 µM. It also gave a TGI (IGROV1 ovarian) greater than 100 µM, a TGI (K-562 leukemia) greater than 100 µM and a TGI (KM12 colon) greater than 100 µM. For the same compound, the TGI (LOX IMVI melanoma) was greater than 100 µM, the TGI (M14 melanoma) was greater than 100 µM and the TGI (MALME-3M melanoma) was 82.2 µM. The TGI (MCF7 breast) was 69.6 µM, the TGI (MDA-MB-435) was greater than 100 µM and the TGI (MDA-N) was greater than 100 µM. The TGI (MOLT-4 leukemia) was greater than 100 µM, the TGI (NCI-H226 lung) was greater than 100 µM and the TGI (NCI-H23 lung) was greater than 100 µM. It also gave a TGI (NCI-H460 lung) greater than 100 µM, a TGI (NCI-H522 lung) of 84.1 µM and a TGI (NCI/ADR-RES ovarian) greater than 100 µM. It also gave a TGI (OVCAR-3 ovarian) greater than 100 µM, a TGI (OVCAR-4 ovarian) greater than 100 µM and a TGI (OVCAR-5 ovarian) greater than 100 µM. The TGI (OVCAR-8 ovarian) was greater than 100 µM, the TGI (PC-3 prostate) was 97.5 µM and the TGI (RPMI-8226 leukemia) was 74.8 µM. It also gave a TGI (RXF 393 renal) of 88.4 µM, a TGI (SF-268 CNS) greater than 100 µM and a TGI (SF-295 CNS) of 96.2 µM. It also gave a TGI (SF-539 CNS) greater than 100 µM, a TGI (SK-MEL-2 melanoma) of 78.4 µM and a TGI (SK-MEL-28 melanoma) greater than 100 µM. The TGI (SK-MEL-5 melanoma) was 32.3 µM, the TGI (SK-OV-3 ovarian) was greater than 100 µM and the TGI (SN12C renal) was greater than 100 µM. It also gave a TGI (SNB-19 CNS) greater than 100 µM, a TGI (SNB-75 CNS) of 87.5 µM and a TGI (SR leukemia) of 77.3 µM. The TGI (SW-620 colon) was greater than 100 µM, the TGI (T-47D breast) was greater than 100 µM and the TGI (TK-10 renal) was greater than 100 µM. For the same compound, the TGI (U251 CNS) was greater than 100 µM, the TGI (UACC-257 melanoma) was 99.1 µM and the TGI (UACC-62 melanoma) was greater than 100 µM. The TGI (UO-31 renal) was greater than 100 µM.

In the case of `O=S(Nc1ccccc1)c1ccc(Cl)c(Cl)c1` (centres undefined), the TGI (786-0 renal) was greater than 100 µM, the TGI (A549 NSCLC) was greater than 100 µM and the TGI (ACHN renal) was greater than 100 µM. It also gave a TGI (BT-549 breast) of 54.4 µM, a TGI (CCRF-CEM leukemia) greater than 100 µM and a TGI (COLO 205 colon) greater than 100 µM. It also gave a TGI (DU-145 prostate) greater than 100 µM, a TGI (EKVX NSCLC) greater than 100 µM and a TGI (HCC-2998 colon) greater than 100 µM. It also gave a TGI (HCT-116 colon) greater than 100 µM, a TGI (HCT-15 colon) greater than 100 µM and a TGI (HL-60(TB) leukemia) greater than 100 µM. It also gave a TGI (HOP-62 NSCLC) of 79.1 µM, a TGI (HS 578T breast) of 84.7 µM and a TGI (HT29 colon) greater than 100 µM. For the same compound, the TGI (IGROV1 ovarian) was greater than 100 µM, the TGI (K-562 leukemia) was greater than 100 µM and the TGI (KM12 colon) was 33.1 µM. The TGI (LOX IMVI melanoma) was greater than 100 µM, the TGI (M14 melanoma) was greater than 100 µM and the TGI (MALME-3M melanoma) was greater than 100 µM. The TGI (MCF7 breast) was greater than 100 µM, the TGI (MDA-MB-231 breast) was greater than 100 µM and the TGI (MDA-MB-435) was 92.9 µM. For the same compound, the TGI (MDA-N) was greater than 100 µM, the TGI (MOLT-4 leukemia) was greater than 100 µM and the TGI (NCI-H226 lung) was greater than 100 µM. For the same compound, the TGI (NCI-H23 lung) was greater than 100 µM, the TGI (NCI-H460 lung) was greater than 100 µM and the TGI (NCI-H522 lung) was greater than 100 µM. The TGI (NCI/ADR-RES ovarian) was greater than 100 µM, the TGI (OVCAR-3 ovarian) was greater than 100 µM and the TGI (OVCAR-4 ovarian) was greater than 100 µM. The TGI (OVCAR-8 ovarian) was greater than 100 µM, the TGI (RPMI-8226 leukemia) was greater than 100 µM and the TGI (SF-268 CNS) was 82.9 µM. For the same compound, the TGI (SF-295 CNS) was 50.1 µM, the TGI (SF-539 CNS) was 53 µM and the TGI (SK-MEL-2 melanoma) was greater than 100 µM. It also gave a TGI (SK-MEL-28 melanoma) greater than 100 µM, a TGI (SK-MEL-5 melanoma) of 62.5 µM and a TGI (SN12C renal) greater than 100 µM. The TGI (SNB-19 CNS) was greater than 100 µM, the TGI (SR leukemia) was greater than 100 µM and the TGI (SW-620 colon) was greater than 100 µM. The TGI (T-47D breast) was 42.4 µM, the TGI (TK-10 renal) was greater than 100 µM and the TGI (U251 CNS) was 34.2 µM. The TGI (UACC-257 melanoma) was greater than 100 µM, the TGI (UACC-62 melanoma) was 64.6 µM and the TGI (UO-31 renal) was greater than 100 µM.
